How the values were obtained:
[1] = system: muscle progenitors (hMP) from DMD hiPSC or WT hiPSC; experiment: Myotube assay: myogenic activity (total myotube area per well); format: cell-based, human; details: Homo sapiens, 72 h, myotube assay, compounds incubated 3 days; for Emax: read-out: MA (normalized Myotube Area, efficacy)
In short: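 DMD or WT hiPSC-derived muscle progenitors plated on collagen I in K5 medium with 5 μM Y-27632, treated with compound (1.5 nM–30 μM) for 3 days at 37° C. Cells were fixed, stained for alpha-actinin and imaged for total myotube area per well. EC50 and normalized myotube area (MA) taken from duplicate-averaged data.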

[2] = system: satellite-like cells (Pax7-positive cells) in hMP; experiment: Myotube assay: Pax7-positive (satellite-like) cell quantification; format: cell-based, human; set-up: key to Pax7% (pool of Pax7-positive cells) / Pax7: −: Depletes the pool of cells, while positively affects the myotubes; +: Maintains or increases the pool of cells, with at least 1 of the highest concentration known to be cytotoxic; ++: Maintains or increases the pool of cells, without any toxicity; details: myotube assay, compounds incubated 3 days
In short: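 DMD hiPSC-derived muscle progenitors (hMP) proliferated 4 days, then plated on collagen I in K5 medium with 5 μM Y-27632. Compound added at 1.5 nM–30 μM for 3 days at 37° C, then cells fixed and immunostained. Pax7-positive cells counted as percentage of total nuclei, duplicates averaged.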

SMILES | Emax [1] [%] | Pax7% (pool of Pax7-positive cells) [2] | EC50 ([1]; 10 points dose-response 1.5 nM to 30 μM, read-out: EC50 (myogenic activity, half-maximal generation of myotubes)) [nM]
CNC(=O)c1ccc(Oc2ccc(NC(=O)Nc3cc(C(C)(C)C)nn3-c3ccccc3)c(SC)c2)cn1 [(ap), 5-(4-(3-(3-(tert-butyl)-1-phenyl-1H-pyrazol-5-yl)ureido)-3-(methylthio)phenoxy)-N-methylpicolinamide] | 25 to 50 | ++ | –
CSc1cc(Oc2ccnc3nccnc23)ccc1NC(=O)Nc1cc(C(C)(C)C)nn1-c1ccccc1 [(bs), 1-(3-(tert-butyl)-1-phenyl-1H-pyrazol-5-yl)-3-(2-(methylthio)-4-(pyrido[2,3-b]pyrazin-8-yloxy)phenyl)urea] | ≥ 75 | ++ | –
CC(C)(C)c1cnc(NC(=O)Nc2ccc(Oc3ccnc4c3CCC(=O)N4)c3ccccc23)s1 [(cu), 1-(5-(tert-butyl)thiazol-2-yl)-3-(4-((7-oxo-5,6,7,8-tetrahydro-1,8-naphthyridin-4-yl)oxy)naphthalen-1-yl)urea] | ≥ 75 | ++ | –
CSc1cc(Oc2ccnc3[nH]c(=O)cnc23)ccc1NC(=O)Nc1cc(C(C)(C)C)no1 [(bx), 1-(3-(tert-butyl)isoxazol-5-yl)-3-(2-(methylthio)-4-((3-oxo-3,4-dihydropyrido[2,3-b]pyrazin-8-yl)oxy)phenyl)urea] | ≥ 75 | ++ | –
CSc1cc(Oc2ccnc3[nH]c(=O)cnc23)ccc1NC(=O)Nc1cc(C(C)(C)C)nn1-c1ccc(CN2CCOCC2)cc1 [(dd), 1-(3-(tert-butyl)-1-(4-(morpholinomethyl)phenyl)-1H-pyrazol-5-yl)-3-(2-(methylthio)-4-((3-oxo-3,4-dihydropyrido[2,3-b]pyrazin-8-yl)oxy)phenyl)urea] | ≥ 75 | + | –
CSc1cc(Oc2ccnc(N)c2)ccc1NC(=O)Nc1cc(C(C)(C)C)nn1-c1ccccc1.Cl [(bj), 1-(4-((2-aminopyridin-4-yl)oxy)-2-(methylthio)phenyl)-3-(3-(tert-butyl)-1-phenyl-1H-pyrazol-5-yl)urea hydrochloride] | ≥ 75 | ++ | –
CSc1cc(Oc2ccnc3[nH]c(=O)cnc23)ccc1NC(=O)Nc1cc(C(C)(C)C)nn1C1CCCCC1 [(bn), 1-(3-(tert-butyl)-1-cyclohexyl-1H-pyrazol-5-yl)-3-(2-(methylthio)-4-((3-oxo-3,4-dihydropyrido[2,3-b]pyrazin-8-yl)oxy)phenyl)urea] | 50 to 75 | ++ | –
CC(C)(C)c1cc(NC(=O)Nc2ccc(Oc3ccncc3)cc2F)n(-c2ccccc2)n1 [(ad), 1-(3-(tert-butyl)-1-phenyl-1H-pyrazol-5-yl)-3-(2-fluoro-4-(pyridin-4-yloxy)phenyl)urea] | 25 to 50 | ++ | –
CSc1cc(Oc2ccnc3c2CCCN3)ccc1NC(=O)Nc1cc(C(C)(C)C)nn1-c1ccccc1 [(be), 1-(3-(tert-butyl)-1-phenyl-1H-pyrazol-5-yl)-3-(2-(methylthio)-4-((5,6,7,8-tetrahydro-1,8-naphthyridin-4-yl)oxy)phenyl)urea] | ≥ 75 | ++ | 500 to 1000
CSc1cc(Oc2ccncc2)ccc1NC(=O)Nc1cc(C(C)(C)C)nn1-c1ccccc1 [(dk), 1-(3-(tert-butyl)-1-phenyl-1H-pyrazol-5-yl)-3-(2-(methylthio)-4-(pyridin-4-yloxy)phenyl)urea] | 25 to 50 | ++ | –
CSc1cc(Oc2ccnc3c2CCC(=O)N3)ccc1NC(=O)Nc1cc(C(C)(C)C)nn1-c1cccc(Cl)c1 [(bz), 1-(3-(tert-butyl)-1-(3-chlorophenyl)-1H-pyrazol-5-yl)-3-(2-(methylthio)-4-((7-oxo-5,6,7,8-tetrahydro-1,8-naphthyridin-4-yl)oxy)phenyl)urea] | ≥ 75 | + | –
CC(C)(C)c1cc(NC(=O)Nc2ccc(Oc3ccnc4[nH]c(=O)cnc34)cc2F)n(-c2ccc3ncccc3c2)n1 [(n), 1-(3-(tert-butyl)-1-(quinolin-6-yl)-1H-pyrazol-5-yl)-3-(2-fluoro-4-((3-oxo-3,4-dihydropyrido[2,3-b]pyrazin-8-yl)oxy)phenyl)urea] | ≥ 75 | + | –
CCOC(=O)Nc1cc(Oc2ccc(NC(=O)Nc3cc(C(C)(C)C)on3)c(SC)c2)ccn1 [(di), Ethyl (4-(4-(3-(5-(tert-butyl)isoxazol-3-yl)ureido)-3-(methylthio)phenoxy)pyridin-2-yl)carbamate] | ≥ 75 | ++ | –
CSc1cc(Oc2ncnc3[nH]c(=O)cnc23)ccc1NC(=O)Nc1cc(C(C)(C)C)nn1-c1ccccc1 [(bv), 1-(3-(tert-butyl)-1-phenyl-1H-pyrazol-5-yl)-3-(2-(methylthio)-4-((7-oxo-7,8-dihydropteridin-4-yl)oxy)phenyl)urea] | ≥ 75 | ++ | –
CC(C)(C)c1cc(NC(=O)Nc2ccc(Oc3ccnc4[nH]c(=O)cnc34)cc2F)[nH]n1 [(h), 1-(3-(tert-butyl)-1H-pyrazol-5-yl)-3-(2-fluoro-4-((3-oxo-3,4-dihydropyrido[2,3-b]pyrazin-8-yl)oxy)phenyl)urea] | 25 to 50 | + | –
Cc1nc2c(Oc3ccc(NC(=O)Nc4cc(C(C)(C)C)nn4-c4ccccc4)c(F)c3)ccnc2c(=O)[nH]1 [(w), 1-(3-(tert-butyl)-1-phenyl-1H-pyrazol-5-yl)-3-(2-fluoro-4-((2-methyl-4-oxo-3,4-dihydropyrido[3,2-d]pyrimidin-8-yl)oxy)phenyl)urea] | 50 to 75 | ++ | –
CSc1cc(Oc2ccnc3[nH]c(=O)cnc23)ccc1NC(=O)Nc1cc(C(C)(C)C)nn1-c1ccc(C)c(Cl)c1 [(cl), 1-(3-(tert-butyl)-1-(3-chloro-4-methylphenyl)-1H-pyrazol-5-yl)-3-(2-(methylthio)-4-((3-oxo-3,4-dihydropyrido[2,3-b]pyrazin-8-yl)oxy)phenyl)urea] | ≥ 75 | + | –
CNC(=O)c1cncc(Oc2ccc(NC(=O)Nc3cc(C(C)(C)C)nn3-c3ccccc3)c(SC)c2)c1 [(ai), 5-(4-(3-(3-(tert-butyl)-1-phenyl-1H-pyrazol-5-yl)ureido)-3-(methylthio)phenoxy)-N-methylnicotinamide] | 50 to 75 | ++ | –
CCOC(=O)Nc1cc(Oc2ccc(NC(=O)Nc3ncc(C(C)(C)C)s3)c(SC)c2)ccn1 [(df), Ethyl (4-(4-(3-(5-(tert-butyl)thiazol-2-yl)ureido)-3-(methylthio)phenoxy)pyridin-2-yl)carbamate] | ≥ 75 | + | –
O=C(Nc1ccc(Oc2ccnc3[nH]c(=O)cnc23)cc1F)Nc1cc(C2CC2)nn1-c1ccccc1 [(e), 1-(3-cyclopropyl-1-phenyl-1H-pyrazol-5-yl)-3-(2-fluoro-4-((3-oxo-3,4-dihydropyrido[2,3-b]pyrazin-8-yl)oxy)phenyl)urea] | 25 to 50 | ++ | –
Cc1ccc(-n2nc(C(C)(C)C)cc2NC(=O)Nc2ccc(Oc3ccnc4[nH]c(=O)cnc34)cc2C(F)(F)F)cc1 [(az), 1-(3-(tert-butyl)-1-(p-tolyl)-1H-pyrazol-5-yl)-3-(4-((3-oxo-3,4-dihydropyrido[2,3-b]pyrazin-8-yl)oxy)-2-(trifluoromethyl)phenyl)urea] | ≥ 75 | ++ | –

— patent US20230089368A1, “POLYAROMATIC UREA DERIVATIVES AND THEIR USE IN THE TREATMENT OF MUSCLE DISEASES” (ANAGENESIS BIOTECHNOLOGIES S.A.S., priority 2019, published 2023)
